Earlier results in publication PMC9963398, “Discovery of New Quinolone-Based Diarylamides as Potent B-RAF^V600E/C-RAF Kinase Inhibitors Endowed with Promising In Vitro Anticancer Activity” (International Journal of Molecular Sciences, 2023).

Experiments:
Set-up in all cases: method as in PMID 32745753
COLO 205 = conditions: COLO 205, Colon cancer; cited from earlier work
OVCAR-5 = conditions: OVCAR-5, Ovarian cancer; cited from earlier work
NCI-H322M = conditions: NSCL cancer; cited from earlier work
TK-10 = conditions: TK-10, Renal cancer; cited from earlier work
NCI/ADR-RES = conditions: Ovarian cancer; cited from earlier work
NCI-H23 = conditions: NCI-H23, NSCL cancer; cited from earlier work
HCT-15 = conditions: HCT-15, Colon cancer; cited from earlier work
M14 = conditions: M14, Melanoma; cited from earlier work
IGROV1 = conditions: IGROV1, Ovarian cancer; cited from earlier work
MOLT-4 = conditions: MOLT-4, Leukemia; cited from earlier work
RXF 393 = conditions: RXF 393, Renal cancer; cited from earlier work
MDA-MB-435 = conditions: MDA-MB-435, Melanoma; cited from earlier work
HT29 = conditions: HT29, Colon cancer; cited from earlier work
OVCAR-3 = conditions: OVCAR-3, Ovarian cancer; cited from earlier work
LOX IMVI = conditions: Melanoma; cited from earlier work
SK-MEL-2 = conditions: SK-MEL-2, Melanoma; cited from earlier work
HL-60(TB) = conditions: Leukemia; cited from earlier work
786-0 = conditions: 786-0, Renal cancer; cited from earlier work
HOP-92 = conditions: HOP-92, NSCL cancer; cited from earlier work
OVCAR-4 = conditions: OVCAR-4, Ovarian cancer; cited from earlier work
SK-OV-3 = conditions: SK-OV-3, Ovarian cancer; cited from earlier work
NCI-H460 = conditions: NCI-H460, NSCL cancer; cited from earlier work
DU-145 = conditions: DU-145, Prostate cancer; cited from earlier work
ACHN = conditions: Renal cancer; cited from earlier work
CAKI-1 = conditions: CAKI-1, Renal cancer; cited from earlier work
SW-620 = conditions: SW-620, Colon cancer; cited from earlier work
A549/ATCC = conditions: NSCL cancer; cited from earlier work
HCC-2998 = conditions: HCC-2998, Colon cancer; cited from earlier work
HS 578T = conditions: Breast cancer; cited from earlier work
A498 = conditions: A498, Renal cancer; cited from earlier work
T-47D = conditions: Breast cancer; cited from earlier work
SNB-75 = conditions: SNB-75, CNS cancer; cited from earlier work
NCI-H226 = conditions: NCI-H226, NSCL cancer; cited from earlier work
K-562 = conditions: K-562, Leukemia; cited from earlier work
SF-539 = conditions: SF-539, CNS cancer; cited from earlier work
SK-MEL-5 = conditions: SK-MEL-5, Melanoma; cited from earlier work

SMILES: CNC(=O)c1cc(Oc2ccc(NC(=O)Nc3ccc(Cl)c(C(F)(F)F)c3)cc2)ccn1 [Sorafenib]
- GI50 (COLO 205): 2.2 µM
- GI50 (OVCAR-5): 2.9 µM
- GI50 (NCI-H322M): 2.8 µM
- GI50 (TK-10): 4.4 µM
- GI50 (NCI/ADR-RES): 2.5 µM
- GI50 (NCI-H23): 1.8 µM
- GI50 (HCT-15): 2.5 µM
- GI50 (M14): 2.2 µM
- GI50 (IGROV1): 2.6 µM
- GI50 (MOLT-4): 2.9 µM
- GI50 (RXF 393): 3.4 µM
- GI50 (MDA-MB-435): 1.8 µM
- GI50 (HT29): 2.2 µM
- GI50 (OVCAR-3): 2.9 µM
- GI50 (LOX IMVI): 1.6 µM
- GI50 (SK-MEL-2): 1.8 µM
- GI50 (HL-60(TB)): 1.6 µM
- GI50 (786-0): 3.4 µM
- GI50 (HOP-92): 1.6 µM
- GI50 (OVCAR-4): 3.5 µM
- GI50 (SK-OV-3): 2.3 µM
- GI50 (NCI-H460): 2.3 µM
- GI50 (DU-145): 3.3 µM
- GI50 (ACHN): 2.8 µM
- GI50 (CAKI-1): 2.9 µM
- GI50 (SW-620): 2.8 µM
- GI50 (A549/ATCC): 2.9 µM
- GI50 (HCC-2998): 3 µM
- GI50 (HS 578T): 2.6 µM
- GI50 (A498): 2.3 µM
- GI50 (T-47D): 1.8 µM
- GI50 (SNB-75): 3 µM
- GI50 (NCI-H226): 1.9 µM
- GI50 (K-562): 2.8 µM
- GI50 (SF-539): 1.6 µM
- GI50 (SK-MEL-5): 1.5 µM
